Key:
Format in all cases: cell-based
[1] = system: Pseudomonas aeruginosa DSM 15980; assay: Antimicrobial activity according to ASTM E 1259-10, bacterium; conditions: FIG. 4; additive composition 2000 ppm or 5000 ppm, MBO 1000 ppm
Text: (§1) • “TUNAP active ingredient”: test solution containing 1000 ppm 2-(2-heptadec-8-enyl-2-imidazolin-1-yl)ethanol additive (example according to the disclosure). • “TUNAP Protection System Diesel”: test solutions containing 2000 ppm or 5000 ppm of the additive composition “1903391” described below (corresponding to approx. 1000 ppm or 2500 ppm of the active ingredient 2-(2-heptadec-8-enyl-2-imidazolin-1-yl)ethanol) (examples according to the disclosure). • “Tunap 685 (Protezione Diesel) Biocide with MBO”: test solution containing 1000 ppm of the biocide MBO (3,3-methylenebis (5-methyloxazolidine), (comparative sample). • “BIT”: test solution containing 1000 ppm of the biocide BIT (benzisothiazolinone) (comparative sample). • “blank”: fuel without addition of an additive (comparative sample) […]
(§2) The antimicrobial activity of the samples against the tested microorganisms was determined according to ASTM E 1259-10.

[2] = system: Hormoconis resinae ATCC 20495; assay: Antimicrobial activity according to ASTM E 1259-10, kerosene fungus; conditions: FIG. 3, additive 1000 ppm, additive composition 2000 ppm or 5000 ppm; for killing of the tested kerosene fungus: MBO 1000 ppm
Text: • “TUNAP active ingredient”: test solution containing 1000 ppm 2-(2-heptadec-8-enyl-2-imidazolin-1-yl)ethanol additive (example according to the disclosure). • “TUNAP Protection System Diesel”: test solutions containing 2000 ppm or 5000 ppm of the additive composition “1903391” described below (corresponding to approx. 1000 ppm or 2500 ppm of the active ingredient 2-(2-heptadec-8-enyl-2-imidazolin-1-yl)ethanol) (examples according to the disclosure). • “Tunap 685 (Protezione Diesel) Biocide with MBO”: test solution containing 1000 ppm of the biocide MBO (3,3-methylenebis (5-methyloxazolidine), (comparative sample). • “BIT”: test solution containing 1000 ppm of the biocide BIT (benzisothiazolinone) (comparative sample). • “blank”: fuel without addition of an additive (comparative sample)
• at least 50% by weight 2-(2-heptadec-8-enyl-2-imidazolin-1-yl)ethanol • 10 to 20% by weight C10-C13 hydrocarbons • 5 to 10% by weight 2,6-di-tert-butyl-4-cresol • 5 to 10% by weight 2-ethylhexanol • 5 to 10% by weight 2-ethylhexyl nitrate • 5 to 10% by weight. of a mixture of bis(2-ethylhexyl)[(4-methyl-1H-1,2,3-benzotriazol-1-yl)methyl]amine, bis(2-ethylhexyl) [(4-methyl-2H-1,2,3-benzotriazol-2-yl)methyl]amine, bis(2-ethylhexyl) [(5-methyl-1H-1,2,3-benzotriazol-1-yl)methyl]amine, bis(2-ethylhexyl) [(5-methyl-2H-1,2,3-benzotriazol-2-yl)methyl]amine, bis(2-ethylhexyl) [(6-methyl-1H-1,2,3-benzotriazol-1-yl)methyl]amine
• Hormoconis resinae ATCC 20495 (“kerosene fungus”) • Pseudomonas aeruginosa DSM 15980 (“bacterium”) • Yarrowia tropicalis ATCC 48138 (“yeast”)
as §2

[3] = system: Yarrowia tropicalis ATCC 48138; assay: Antimicrobial activity according to ASTM E 1259-10, yeast; conditions: FIG. 5; additive 1000 ppm, additive composition 2000 ppm or 5000 ppm, BIT 1000 ppm
Text: as §1, §2

[4] = system: Yarrowia tropicalis ATCC 48138; assay: Antimicrobial efficacy according to DIN EN 15457:2014-11, yeast fungus; conditions: FIG. 2; test solution 1% by weight additive vs 0.1% by weight MBO or MIT
Text: (§3) • “TUNAP new”: Test solution containing 1% by weight 2-(2-heptadec-8-enyl-2-imidazolin-1-yl)ethanol additive (example according to the disclosure). • “Standard diesel bug biocide with MBO”: test solution containing 0.1% by weight of the biocide MBO (3,3-methylenebis (5-methyloxazolidine)) (comparative sample). • “MIT”: test solution containing 0.1% by weight of the biocide MIT (2-methyl-2H-isothiazol-3-one), (comparative sample). • “Pure fuel”: fuel without the addition of an additive (comparative sample)
(§4) • Hormoconis resinae ATCC 20495 (“kerosene fungus”) • Yarrowia tropicalis ATCC 48138 (“yeast fungus”)
(§5) The antimicrobial efficacy of the samples against the tested microorganisms was determined according to DIN EN 15457:2014-11.

[5] = system: Hormoconis resinae ATCC 20495; assay: Antimicrobial efficacy according to DIN EN 15457:2014-11, kerosene fungus; conditions: FIG. 1; test solution 1% by weight additive vs 0.1% by weight MBO or MIT
Text: as §3, §4, §5

SMILES | killing of the tested bacterium [1] | killing of the tested kerosene fungus [2] | efficacy against the tested yeast compared with BIT [3] | efficacy against the tested kerosene fungus compared with BIT ([2]; BIT 1000 ppm) | efficacy against the tested yeast fungus compared with MBO and MIT [4] | efficacy against the tested kerosene fungus compared with MBO and MIT [5]
CC1CN(CN2COC(C)C2)CO1 (stereo not shown) [MBO, 3,3-methylenebis (5-methyloxazolidine), reference compound] | almost complete killing | almost complete killing |  |  |  | 
CCCCCCCCC=CCCCCCCCC1=NCCN1CCO [additive according to the disclosure, 2-(2-heptadec-8-enyl-2-imidazolin-1-yl)ethanol] |  | almost complete killing | significantly improved efficacy against the tested yeast than the conventional biocide BIT | significantly improved efficacy against the tested kerosene fungus than the conventional biocide BIT | at least a similar efficacy against the tested yeast fungus as the conventional but toxic biocides MBO and MIT | significantly improved efficacy against the tested kerosene fungus than the conventional and also toxic biocides MBO and MIT
